Data on 62 compounds can be found in PubChem BioAssay AID844 (SRMLSC, 2007).

This assay relates to MRP1 cells, doxorubicin viability shift, 10 uM compound. Nature of the assay: doxorubicin EC50 increase in MRP-1 cells, dose response, cell-based, doxorubicin EC50 shift (AID 844). The settings on record: for EC50: measured here: doxorubicin EC50 with compound.

The source made the active and inactive calls. How the calls were made is not given here.

With `Cc1ccc2nc(Nc3nc(CSc4nc5ccccc5s4)cc(=O)[nH]3)nc(C)c2c1`, the fold increase in Dox EC50 was 1.08 (inactive) and the EC50 amounted to 5.81 µM.

For the compound `CCOC(=O)c1csc(NC(=O)c2ccccc2)n1`, the fold increase in Dox EC50 was 0.86 (inactive) and the EC50 is 4.65 µM.

For the compound `O=C(Nc1ccn(Cc2ccccc2F)n1)c1ccc(COc2cc(Cl)ccc2Cl)o1`, the fold increase in Dox EC50 was 0.91 (inactive) and the EC50 was 4.94 µM.

Turning to `O=C1c2cccc(OCc3ccc(F)cc3)c2CCN1Cc1ccc(F)cc1`, the fold increase in Dox EC50 is 1.08 (inactive) and the EC50 came to 5.82 µM.

For `Cc1cccc2cc(CN(Cc3ccco3)S(=O)(=O)c3ccc4c(c3)OCCO4)c(=O)[nH]c12`, the fold increase in Dox EC50 was 0.96 (inactive) and the EC50 was 5.19 µM.

As for `Cc1nc(N2CCN(Cc3ccccc3)CC2)nc2c1C(=O)CC(c1ccco1)C2` (centres undefined), the fold increase in Dox EC50 was 0.75 (inactive) and the EC50 stood at 4.04 µM.

For the compound `COc1ccc(C(=O)NCc2ccccc2)cc1S(=O)(=O)N1CCCc2ccccc21`, the fold increase in Dox EC50 was 0.56 (inactive) and the EC50 worked out at 3.02 µM.

In the case of `C=CCOc1ccc(CNc2ccc(NC(=O)CC(C)C)cc2)cc1OC`, the fold increase in Dox EC50 is 0.82 (inactive) and the EC50 worked out at 4.43 µM.

In the case of `Cc1ccc(C(=O)Nc2nnc(C)s2)o1`, the fold increase in Dox EC50 was 1.32 (inactive) and the half-maximal effective concentration (EC50) was 7.14 µM.

On to `CC(=O)N1CCN=C1SCc1ccc(C)cc1`, for which the fold increase in Dox EC50 was 0.87 (inactive) and the EC50 was determined as 4.67 µM.

`CN(Cc1ccccc1)c1oc(COc2ccccc2F)nc1C#N`: the fold increase in Dox EC50 is 0.66 (inactive) and the EC50 was 3.56 µM.

For `Cc1ccc(OCc2nc(-c3ccc(Cl)cc3)n[nH]2)cc1`, the fold increase in Dox EC50 was 0.79 (inactive) and the EC50 worked out at 4.24 µM.

For `CCc1nnc(NC(=O)c2ccc(-c3ccc(Cl)cc3)o2)s1`, the fold increase in Dox EC50 was 1.19 (inactive) and the EC50 was found to be 6.41 µM.

For the compound `O=C1[C@@H]2C(Cc3ccc(O)cc3)NC3(C(=O)Nc4ccc(F)cc43)[C@@H]2C(=O)N1c1ccc(F)cc1` (some centres undefined), the fold increase in Dox EC50 was 1.39 (inactive) and the EC50 was 7.52 µM.

On to `Cc1nc2ccccc2c(=O)n1/N=C/c1c(O)ccc2oc3c(c12)CCCC3`, for which the fold increase in Dox EC50 was 0.28 (inactive) and the EC50 amounted to 1.5 µM.

On to `CCc1nnc(NC(=O)c2ccc(COc3ccc(C)cc3)o2)s1`, for which the fold increase in Dox EC50 was 1.33 (inactive) and the EC50 is 7.18 µM.

In the case of `CC(C)(C)c1cc(Br)ccc1OCC(=O)Nc1ncn[nH]1`, the fold increase in Dox EC50 is 0.89 (inactive) and the EC50 turned out to be 4.78 µM.

Take `CCc1nnc(NC(=O)C2COc3ccccc3O2)s1` (centres undefined): the fold increase in Dox EC50 is 1.1 (inactive) and the 50% effective concentration (EC50) came to 5.95 µM.

On to `CCC(Sc1nc2ccccc2o1)C(=O)Nc1nnc(C)s1` (centres undefined), for which the fold increase in Dox EC50 was 1.34 (inactive) and the EC50 amounted to 7.22 µM.

As to `CCc1nnc(NC(=O)C2CCCN2S(=O)(=O)c2ccccc2)s1` (centres undefined), the fold increase in Dox EC50 was 1.46 (inactive) and the EC50 turned out to be 7.89 µM.

Turning to `Cc1ccc(S(=O)(=O)N2CCC(C(=O)N[C@@H](C)C(=O)Nc3ccc4c(c3)OCO4)CC2)cc1`, the fold increase in Dox EC50 was 1.43 (inactive) and the EC50 was found to be 7.7 µM.

In the case of `CC(CCc1ccccc1)NC(=O)CN1CCN(Cc2ccc(Cl)cc2)C1=O` (centres undefined), the fold increase in Dox EC50 was 1.03 (inactive) and the EC50 stood at 5.58 µM.

As to `C/C(=N/NC(=O)CSc1ccccn1)c1ccc([N+](=O)[O-])cc1`, the fold increase in Dox EC50 is 0.77 (inactive) and the EC50 stood at 4.18 µM.

For the compound `Cc1noc(/C=C/N(C)C)c1S(=O)(=O)N1CCCC(C(=O)NC2CCCCC2)C1` (centres undefined), the fold increase in Dox EC50 was 0.97 (inactive) and the EC50 was determined as 5.23 µM.

`Fc1cccc(-c2cc3nc(-c4ccccc4)cc(N4CCC5(CC4)OCCO5)n3n2)c1`: the fold increase in Dox EC50 is 0.56 (inactive) and the EC50 came to 3.04 µM.

Consider `COc1ccccc1N1CCN(C(=O)COc2ccc(Cl)cc2)CC1`, for which the fold increase in Dox EC50 was 0.8 (inactive) and the EC50 was found to be 4.32 µM.

As for `O=C(NCCC1=CCCCC1)C1CCN(S(=O)(=O)c2cccc3cccnc23)CC1`, the fold increase in Dox EC50 is 0.43 (inactive) and the EC50 turned out to be 2.31 µM.

As to `CC(=O)/C(C#N)=C1\NC(=O)C(Cc2ccc(C)c(C)c2)S1` (centres undefined), the fold increase in Dox EC50 is 1.19 (inactive) and the EC50 was determined as 6.44 µM.

`Cc1nc(C)c(C(=O)NNS(=O)(=O)c2ccccc2)s1`: the fold increase in Dox EC50 was 0.83 (inactive) and the EC50 was 4.48 µM.

Regarding `Cc1cc(C(=O)N/N=C/c2cc(Br)ccc2OC(=O)c2ccccc2)n[nH]1`, the fold increase in Dox EC50 is 0.15 (inactive) and the EC50 came to 0.808 µM.

Regarding `Cn1c(=O)oc2cc(S(=O)(=O)N3CCCC(C(=O)NCC4COc5ccccc5O4)C3)ccc21` (centres undefined), the fold increase in Dox EC50 was 0.53 (inactive) and the EC50 is 2.86 µM.

In the case of `Cc1cc(C)n(-c2nc3ccccc3nc2Nc2ccc3c(c2)OCO3)n1`, the fold increase in Dox EC50 was 0.75 (inactive) and the EC50 is 4.02 µM.

Take `N#CCCNC(=O)Cn1c(COc2ccc(Cl)cc2)nc2ccccc21`: the fold increase in Dox EC50 is 0.85 (inactive) and the EC50 worked out at 4.57 µM.

Regarding `CCc1nnc(NC(=O)C(C)N2C(=O)C3C4C=CC(C4)C3C2=O)s1` (centres undefined), the fold increase in Dox EC50 is 1.01 (inactive) and the EC50 worked out at 5.44 µM.

For `O=c1cc(CNc2ccc(Br)cc2)nc2sccn12`, the fold increase in Dox EC50 is 0.99 (inactive) and the EC50 came out at 5.37 µM.

For the compound `Cc1cccc(-n2c(SCC(=O)Nc3ncc(Cl)cc3Cl)nc3ccccc32)c1`, the fold increase in Dox EC50 was 0.81 (inactive) and the EC50 was 4.37 µM.

As to `COc1ccc(NC(=O)CC2C(=O)N(c3ccc(Cl)cc3)C(=S)N2NC(=O)c2cccc(F)c2)cc1` (centres undefined), the fold increase in Dox EC50 is 0.67 (inactive) and the EC50 came out at 3.59 µM.

In the case of `COc1cccc(/C=N/NC(=O)CNC(=O)C2COc3ccccc3O2)c1O` (centres undefined), the fold increase in Dox EC50 was 0.12 (inactive) and the EC50 came out at 0.637 µM.

On to `O=C(N/N=C/c1ccccc1[N+](=O)[O-])c1ccc(COc2ccccc2-c2ccccc2)cc1`, for which the fold increase in Dox EC50 was 1 (inactive) and the EC50 amounted to 5.39 µM.

As to `CC(SC1=NCCS1)C(=O)Nc1nnc(-c2ccc(Br)cc2)s1` (centres undefined), the fold increase in Dox EC50 is 0.97 (inactive) and the EC50 is 5.24 µM.

As to `COc1ccc(C2CC(c3ccc(Cl)cc3)n3nc(N)nc3N2)cc1` (centres undefined), the fold increase in Dox EC50 was 0.65 (inactive) and the EC50 came to 3.52 µM.

Regarding `CCOC(=O)C(C(=O)Nc1nc2ccccc2s1)C1CCCCC1` (centres undefined), the fold increase in Dox EC50 was 1 (inactive) and the EC50 is 5.39 µM.

`COc1ccc(NC(=O)C(=O)N/N=C/c2cc(C)n(-c3cccc(Cl)c3Cl)c2C)c(OC)c1`: the fold increase in Dox EC50 is 1.43 (inactive) and the EC50 was found to be 7.74 µM.

As for `O=C1CC(N2CCN(c3nc4ccccc4s3)CC2)C(=O)N1c1ccc(F)cc1` (centres undefined), the fold increase in Dox EC50 is 1.18 (inactive) and the EC50 is 6.38 µM.

On to `CN(C)c1ccc(NC(=O)CN2C(=O)CN=C(c3ccccc3)c3cc(Cl)ccc32)cc1`, for which the fold increase in Dox EC50 is 1.29 (inactive) and the EC50 worked out at 6.99 µM.

Regarding `Cc1ccccc1NC(=O)CSC1=NCCN1`, the fold increase in Dox EC50 is 0.69 (inactive) and the EC50 was 3.73 µM.

Consider `O=[N+]([O-])c1ccc(O)c(N=Cc2sc3ccccc3c2O)c1`, for which the fold increase in Dox EC50 is 0.08 (inactive) and the EC50 worked out at 0.457 µM.

As for `CCOC(=O)c1sc(-c2ccc(F)cc2)cc1NC(=O)Nc1ccccc1OC`, the fold increase in Dox EC50 is 0.83 (inactive) and the EC50 turned out to be 4.5 µM.

Regarding `Cc1ccc(N2C(=O)C3C(c4ccccc4)(C2=O)C3(c2ccccc2)c2ccccc2)cc1` (centres undefined), the fold increase in Dox EC50 was 0.22 (inactive) and the EC50 amounted to 1.16 µM.

In the case of `Cn1cc(Br)c(C(=O)NNC(=O)c2ccc(Br)cc2)n1`, the fold increase in Dox EC50 is 0.98 (inactive) and the EC50 is 5.26 µM.

For `CCOC(=O)C1=C(C)N=C2SC(CC)C(=O)N2C1c1cccc(F)c1` (centres undefined), the fold increase in Dox EC50 was 1.14 (inactive) and the EC50 was determined as 6.14 µM.

Turning to `O=C(CN1C(=O)S/C(=C\c2ccc(Cl)cc2)C1=O)NNC(=O)c1ccccc1O`, the fold increase in Dox EC50 was 1.05 (inactive) and the EC50 turned out to be 5.65 µM.

As for `O=C(CSc1nccn1-c1cccc(Cl)c1)Nc1ccc2c(c1)OCCO2`, the fold increase in Dox EC50 is 1.22 (inactive) and the EC50 was found to be 6.58 µM.

For `CCOC(=O)C1=C(C)Nc2sc(C(=O)c3ccc(OC)cc3)c(N)c2C1c1ccc(C(=O)OC)cc1` (centres undefined), the fold increase in Dox EC50 was 0.2 (inactive) and the EC50 came to 1.09 µM.

For the compound `Cc1ccc(C)c(N2CCN(C(=O)c3ccc4nc(-c5ccco5)c(-c5ccco5)nc4c3)CC2)c1`, the fold increase in Dox EC50 is 0.79 (inactive) and the EC50 was found to be 4.25 µM.

With `CCOC(=O)c1nnc(-c2ccccc2)nc1Oc1ccccc1Cl`, the fold increase in Dox EC50 was 0.99 (inactive) and the EC50 was determined as 5.34 µM.

As to `CC(C)Oc1ccc(-c2nn(-c3ccccc3)cc2/C=c2\sc3ncnn3c2=O)cc1`, the fold increase in Dox EC50 was 0.82 (inactive) and the EC50 is 4.4 µM.

For `CS(=O)(=O)Nc1nnc(Cc2ccccc2)s1`, the fold increase in Dox EC50 was 0.75 (inactive) and the EC50 came to 4.04 µM.

On to `Cc1ccc(S(=O)(=O)N2CCC(C(=O)N[C@@H](C)C(=O)NC3CCCCC3)CC2)cc1`, for which the fold increase in Dox EC50 is 0.88 (inactive) and the EC50 came out at 4.73 µM.

`CCN(CC)C(=O)C(=O)c1c(-c2ccccc2)[nH]c2ccccc12`: the fold increase in Dox EC50 is 2.22 and the concentration for a half-maximal effect (EC50) stood at 12 µM.

On to `COC(=O)c1ccc(COc2cc(O)c3c(c2)OC(C)(C)CC3=O)cc1`, for which the fold increase in Dox EC50 was 1.03 (inactive) and the EC50 was 5.56 µM.

Consider `O=C(NC(=S)Nc1ccccc1N1CCOCC1)c1ccc(-c2cccc(Cl)c2)o1`, for which the fold increase in Dox EC50 is 0.41 (inactive) and the EC50 was 2.22 µM.

In general, EC50 refers to the concentration giving half of the maximal effect.
